{"source": "patent US8192962B2", "about": "“Processes for detecting toxic substances” (Daikin Industries, Ltd., priority 2001, dated 2012)", "system": "Energy system protein genes", "assay": "DNA chip mRNA expression in yeast, energy system protein genes (Table 4)", "assay_type": "cell-based, Saccharomyces cerevisiae S288C", "how_it_was_run": "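Cells were grown at 25° C. in YPD, treated at logarithmic phase for 2 h with a chemical at a concentration inhibiting growth but not causing death, and compared with untreated cultures. Labeled cDNA was hybridized to a DNA chip carrying all yeast genes, and the expression ratio was taken from scanner fluorescence.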", "data": [{"smiles": "COc1cc(CNC(=O)CCCCC=CC(C)C)ccc1O", "note": "[(12), 8-methyl-N-vanillyl-6-nonenamide]", "values": [{"measurement": "The level of expressed mRNA in the presence of chemical substance/The level of expressed mRNA in the absence of chemical substance", "setting": "yeast gene YAL060W", "result": 0.8}, {"measurement": "The level of expressed mRNA in the presence of chemical substance/The level of expressed mRNA in the absence of chemical substance", "setting": "yeast gene YBL058W, cells incubated two hours with the chemical substance", "result": 0.8}, {"measurement": "The level of expressed mRNA in the presence of chemical substance/The level of expressed mRNA in the absence of chemical substance", "setting": "yeast gene YBL099W, cells incubated two hours with the chemical substance", "result": 1.0}, {"measurement": "The level of expressed mRNA in the presence of chemical substance/The level of expressed mRNA in the absence of chemical substance", "setting": "yeast gene YBR001C, cells incubated two hours with the chemical substance", "result": 1.0}, {"measurement": "The level of expressed mRNA in the presence of chemical substance/The level of expressed mRNA in the absence of chemical substance", "setting": "yeast gene YBR185C, cells incubated two hours with the chemical substance", "result": 0.7}, {"measurement": "The level of expressed mRNA in the presence of chemical substance/The level of expressed mRNA in the absence of chemical substance", "setting": "yeast gene YBR221C, cells incubated two hours with the chemical substance", "result": 1.3}, {"measurement": "The level of expressed mRNA in the presence of chemical substance/The level of expressed mRNA in the absence of chemical substance", "setting": "yeast gene YCL040W", "result": 2.3}, {"measurement": "The level of expressed mRNA in the presence of chemical substance/The level of expressed mRNA in the absence of chemical substance", "setting": "yeast gene YCR005C", "result": 0.5}, {"measurement": "The level of expressed mRNA in the presence of chemical substance/The level of expressed mRNA in the absence of chemical substance", "setting": "yeast gene YCR012W", "result": 1.2}, {"measurement": "The level of expressed mRNA in the presence of chemical substance/The level of expressed mRNA in the absence of chemical substance", "setting": "yeast gene YCR046C, cells incubated two hours with the chemical substance", "result": 1.1}, {"measurement": "The level of expressed mRNA in the presence of chemical substance/The level of expressed mRNA in the absence of chemical substance", "setting": "yeast gene YCR105W, cells incubated two hours with the chemical substance", "result": 0.9}, {"measurement": "The level of expressed mRNA in the presence of chemical substance/The level of expressed mRNA in the absence of chemical substance", "setting": "yeast gene YDL021W", "result": 2.4}, {"measurement": "The level of expressed mRNA in the presence of chemical substance/The level of expressed mRNA in the absence of chemical substance", "setting": "yeast gene YDL067C, cells incubated two hours with the chemical substance", "result": 1.0}, {"measurement": "The level of expressed mRNA in the presence of chemical substance/The level of expressed mRNA in the absence of chemical substance", "setting": "yeast gene YDL078C, cells incubated two hours with the chemical substance", "result": 0.8}, {"measurement": "The level of expressed mRNA in the presence of chemical substance/The level of expressed mRNA in the absence of chemical substance", "setting": "yeast gene YDL107W, cells incubated two hours with the chemical substance", "result": 1.0}, {"measurement": "The level of expressed mRNA in the presence of chemical substance/The level of expressed mRNA in the absence of chemical substance", "setting": "yeast gene YDL174C", "result": 2.8}, {"measurement": "The level of expressed mRNA in the presence of chemical substance/The level of expressed mRNA in the absence of chemical substance", "setting": "yeast gene YDL181W, cells incubated two hours with the chemical substance", "result": 0.9}, {"measurement": "The level of expressed mRNA in the presence of chemical substance/The level of expressed mRNA in the absence of chemical substance", "setting": "yeast gene YDR001C", "result": 1.1}, {"measurement": "The level of expressed mRNA in the presence of chemical substance/The level of expressed mRNA in the absence of chemical substance", "setting": "yeast gene YDR050C, cells incubated two hours with the chemical substance", "result": 1.4}, {"measurement": "The level of expressed mRNA in the presence of chemical substance/The level of expressed mRNA in the absence of chemical substance", "setting": "yeast gene YDR079W, cells incubated two hours with the chemical substance", "result": 1.1}, {"measurement": "The level of expressed mRNA in the presence of chemical substance/The level of expressed mRNA in the absence of chemical substance", "setting": "yeast gene YDR178W, cells incubated two hours with the chemical substance", "result": 1.3}, {"measurement": "The level of expressed mRNA in the presence of chemical substance/The level of expressed mRNA in the absence of chemical substance", "setting": "yeast gene YDR231C", "result": 1.1}, {"measurement": "The level of expressed mRNA in the presence of chemical substance/The level of expressed mRNA in the absence of chemical substance", "setting": "yeast gene YDR298C, cells incubated two hours with the chemical substance", "result": 1.1}, {"measurement": "The level of expressed mRNA in the presence of chemical substance/The level of expressed mRNA in the absence of chemical substance", "setting": "yeast gene YDR377W, cells incubated two hours with the chemical substance", "result": 0.9}, {"measurement": "The level of expressed mRNA in the presence of chemical substance/The level of expressed mRNA in the absence of chemical substance", "setting": "yeast gene YDR529C, cells incubated two hours with the chemical substance", "result": 0.6}, {"measurement": "The level of expressed mRNA in the presence of chemical substance/The level of expressed mRNA in the absence of chemical substance", "setting": "yeast gene YEL024W, cells incubated two hours with the chemical substance", "result": 0.8}, {"measurement": "The level of expressed mRNA in the presence of chemical substance/The level of expressed mRNA in the absence of chemical substance", "setting": "yeast gene YEL039C, cells incubated two hours with the chemical substance", "result": 0.6}, {"measurement": "The level of expressed mRNA in the presence of chemical substance/The level of expressed mRNA in the absence of chemical substance", "setting": "yeast gene YER178W", "result": 1.3}, {"measurement": "The level of expressed mRNA in the presence of chemical substance/The level of expressed mRNA in the absence of chemical substance", "setting": "yeast gene YFL057C", "result": 1.0}, {"measurement": "The level of expressed mRNA in the presence of chemical substance/The level of expressed mRNA in the absence of chemical substance", "setting": "yeast gene YFR053C", "result": 1.7}, {"measurement": "The level of expressed mRNA in the presence of chemical substance/The level of expressed mRNA in the absence of chemical substance", "setting": "yeast gene YGL018C, cells incubated two hours with the chemical substance", "result": 1.0}, {"measurement": "The level of expressed mRNA in the presence of chemical substance/The level of expressed mRNA in the absence of chemical substance", "setting": "yeast gene YGL062W", "result": 1.6}, {"measurement": "The level of expressed mRNA in the presence of chemical substance/The level of expressed mRNA in the absence of chemical substance", "setting": "yeast gene YGL187C, cells incubated two hours with the chemical substance", "result": 0.8}, {"measurement": "The level of expressed mRNA in the presence of chemical substance/The level of expressed mRNA in the absence of chemical substance", "setting": "yeast gene YGL191W, cells incubated two hours with the chemical substance", "result": 0.9}, {"measurement": "The level of expressed mRNA in the presence of chemical substance/The level of expressed mRNA in the absence of chemical substance", "setting": "yeast gene YGL205W, cells incubated two hours with the chemical substance", "result": 1.1}, {"measurement": "The level of expressed mRNA in the presence of chemical substance/The level of expressed mRNA in the absence of chemical substance", "setting": "yeast gene YGL256W, cells incubated two hours with the chemical substance", "result": 0.9}, {"measurement": "The level of expressed mRNA in the presence of chemical substance/The level of expressed mRNA in the absence of chemical substance", "setting": "yeast gene YGR043C", "result": 3.3}, {"measurement": "The level of expressed mRNA in the presence of chemical substance/The level of expressed mRNA in the absence of chemical substance", "setting": "yeast gene YGR062C, cells incubated two hours with the chemical substance, 25° C., YPD medium", "result": 1.0}, {"measurement": "The level of expressed mRNA in the presence of chemical substance/The level of expressed mRNA in the absence of chemical substance", "setting": "yeast gene YGR087C, cells incubated two hours with the chemical substance", "result": 1.2}, {"measurement": "The level of expressed mRNA in the presence of chemical substance/The level of expressed mRNA in the absence of chemical substance", "setting": "yeast gene YGR174C, cells incubated two hours with the chemical substance", "result": 0.9}, {"measurement": "The level of expressed mRNA in the presence of chemical substance/The level of expressed mRNA in the absence of chemical substance", "setting": "yeast gene YGR192C", "result": 2.2}, {"measurement": "The level of expressed mRNA in the presence of chemical substance/The level of expressed mRNA in the absence of chemical substance", "setting": "yeast gene YGR244C", "result": 1.9}, {"measurement": "The level of expressed mRNA in the presence of chemical substance/The level of expressed mRNA in the absence of chemical substance", "setting": "yeast gene YGR254W", "result": 1.7}, {"measurement": "The level of expressed mRNA in the presence of chemical substance/The level of expressed mRNA in the absence of chemical substance", "setting": "yeast gene YHR179W", "result": 2.2}, {"measurement": "The level of expressed mRNA in the presence of chemical substance/The level of expressed mRNA in the absence of chemical substance", "setting": "yeast gene YIL160C", "result": 1.0}, {"measurement": "The level of expressed mRNA in the presence of chemical substance/The level of expressed mRNA in the absence of chemical substance", "setting": "yeast gene YIR031C, cells incubated two hours with the chemical substance", "result": 0.8}, {"measurement": "The level of expressed mRNA in the presence of chemical substance/The level of expressed mRNA in the absence of chemical substance", "setting": "yeast gene YJL052W", "result": 2.4}, {"measurement": "The level of expressed mRNA in the presence of chemical substance/The level of expressed mRNA in the absence of chemical substance", "setting": "yeast gene YJL121C, cells incubated two hours with the chemical substance", "result": 0.6}, {"measurement": "The level of expressed mRNA in the presence of chemical substance/The level of expressed mRNA in the absence of chemical substance", "setting": "yeast gene YJL166W, cells incubated two hours with the chemical substance", "result": 0.7}, {"measurement": "The level of expressed mRNA in the presence of chemical substance/The level of expressed mRNA in the absence of chemical substance", "setting": "yeast gene YJL216C, cells incubated two hours with the chemical substance", "result": 1.0}, {"measurement": "The level of expressed mRNA in the presence of chemical substance/The level of expressed mRNA in the absence of chemical substance", "setting": "yeast gene YJR009C", "result": 1.5}]}]}
